Assay results published in patent publication US20050065086A1, “Use of peptide-drug conjugation to reduce inter-subject variability of drug serum levels” (New River Pharmaceuticals Inc., priority 2002, published 2005).

Key:
Caco-2 Cells [1] = conditions: unlike rapid and efficient in vivo absorption; cited from earlier work
physchem = format: physicochemical; conditions: pH 7.4, aqueous buffer
Source text: The enhanced absorption may be explained by the use of an additional transport mechanism, such as one of the peptide transporters.

Caco-2 Cells [2] = conditions: cited from earlier work
[3] = after oral administration (Gidal and coworkers); cited from earlier work

N[C@@H](Cc1ccc(O)c(O)c1)C(=O)O [L-dopa]
transport by Caco-2 cells (Caco-2 Cells [1]): do not transport L-dopa very well

N[C@@H](Cc1cc(I)c(Oc2cc(I)c(O)c(I)c2)c(I)c1)C(=O)O [T4, sodium, levothyroxine sodium]
solubility (physchem): 6.9 µg/mL

NS(=O)(=O)c1cc2c(cc1Cl)N=CNS2(=O)=O [chlorothiazide]
permeability (Caco-2 Cells [2]; Caco-2): low | absorption in humans (Caco-2 Cells [2]): low

NCC1(CC(=O)O)CCCCC1 [gabapentin]
intersubject CV for the AUC [3]: 22.5%
